Assay results reported in patent publication US7807663B2, “Therapeutic agents for diabetes” (Ajinomoto Co., Inc., priority 2003, dated 2010).
≈ marks a conversion by molar mass, not a printed value.

What was measured:
KK-Ay mice = experiment: Combinational effect with biguanide (metformin) using KK-Ay mice (Example 4); type: in vivo; settings: combined with metformin, compared with alone groups, same experiment as Example 3
Procedure: (§1) The compound (III) (30 mg/kg) was orally administered to C57BL/KsJ-db/bdJcl mice (10 week age, male) and soon after that, metformin (100 mg/kg) was orally administered. 60 minutes after administration, the blood was taken from their caudal veins to determine the blood glucose level.
The same experiment is conducted as that of Example 3 except that the compounds of the Compound Nos. 6, 8, 62, 80, 81, 88, 91, 96, 105, 106, 129, 130, 131 and 132 in Tables 1 and 2 are used instead of the compound (III), and KK-Ay mice are used instead of db/bd mice.

C57BL/KsJ-db/bdJcl mice [1] = experiment: Combinational effect with insulin using db/db mice (Examples 7 and 8); type: in vivo; settings: combined with insulin 0.2 U/kg, compared with alone groups, same experiment as Example 3
Procedure: The compound (III) (30 mg/kg) was orally administered to C57BL/KsJ-db/bdJcl mice (10 week age, male) and soon after that, metformin (100 mg/kg) was orally administered. 60 minutes after administration, the blood was taken from their caudal veins to determine the blood glucose level. The same experiment is conducted as that of Example 3 except that insulin (0.2 U/kg) is used instead of metformin. […] The same experiment is conducted as that of Example 7 except that the compounds of the Compound Nos. 6, 8, 62, 80, 81, 88, 91, 96, 105, 106, 129, 130, 131 and 132 in Tables 1 and 2 are used instead of the compound (III).

adipose cells of rats = experiment: Evaluation of the sugar transportation activity (2-[14C(U)]-deoxy-D-glucose incorporation); type: cell-based, Wistar rats; settings: concentration with reinforcing effect of 50% of that of insulin (100 nM) = 100%; rat adipose cells, 30 min pre-culture at 37° C., 5 min uptake
How it was run: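 Collagenase-isolated epididymal adipocytes from male Wistar rats in 2% BSA/KRH (pH 7.6) preincubated with compound 30 min at 37 °C, then pulsed with 2-[14C(U)]-deoxy-D-glucose (0.5 μCi/sample) 5 min; uptake stopped with 10 μM cytochalasin B, cells separated through dinonyl phthalate and counted by scintillation. EC50 (μg/mL) = concentration giving 50% of the 100 nM insulin effect.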

C57BL/KsJ-db/bdJcl mice [2] = experiment: Combinational effect with glitazone (pioglitazone) using db/db mice, oral glucose load (Examples 5 and 6); type: in vivo; settings: single oral administration combined with pioglitazone 10 mg/kg/day oral for 10 days, compared with alone groups
Procedure: The oral glucose load experiments are conducted using C57BL/KsJ-db/bdJcl mice in the conditions with or without the oral administeration of pioglitazone (10 mg/kg/day) for 10 days and with or without a single oral administration of the compound (III).
The same experiment is conducted as that of Example 5 except that the compounds of the Compound Nos. 6, 8, 62, 80, 81, 88, 91, 96, 105, 106, 129, 130, 131 and 132 in Tables 1 and 2 are used instead of the compound (III).

C57BL/6NCrj mice = experiment: Combinational effect with insulin secretagogue (gliclazide) using normal mice (Example 1); type: in vivo; settings: compound 100 mg/kg oral combined with gliclazide 3 mg/kg oral, compared with alone groups
Procedure: FIG. 1 is a chart showing a combinational effect of the compound (II) and gliclazide in Example 1 (average value±standard deviation, each group N=4).
The compound (II) of the Compound No. 96 in above Table 1, which is indicated by the following structural formula, was used for the investigation. The compound is that described as Example 129 in WO02/44180 and synthesized in accordance with the method described in the international publication.
(§2) The compound (II) (100 mg/kg) was orally administered to C57BL/6NCrj mice (11 week age, male) and soon after that, gliclazide (3 mg/kg) was orally administered. After administration, the blood was taken from their caudal veins over time to determine the blood glucose level. Area under the curve of blood glucose level changes until 70 minutes after the administration was set as an index and variations from a control group (Vehicle administered group) were compared.

C57BL/KsJ-db/bdJcl mice [3] = experiment: Combinational effect with biguanide (metformin) using db/db mice (Example 3); type: in vivo; settings: compound 30 mg/kg oral combined with metformin 100 mg/kg oral, compared with alone groups
Procedure: FIG. 2 is a chart showing a combinational effect of the compound (III) and metformin in Example 3 (average value+standard deviation, each group N=6).
The compound (III) of the Compound No. 98 in above Table 1, which is indicated by the following structural formula, was used for the investigation. The compound is that described as Example 131 in WO02/44180 and synthesized in accordance with the method described in the international publication.
as §1

GK rats = experiment: Combinational effect with insulin secretagogue (gliclazide) using GK rats (Example 2); type: in vivo; settings: combined with gliclazide, compared with alone groups, same experiment as Example 1
Procedure: as §2
The same experiment is conducted as that of Example 1 except that the compounds of the Compound Nos. 6, 8, 62, 80, 81, 88, 91, […], 105, 106, 129, 130, 131 and 132 in Tables 1 and 2 are used instead of the compound (II), and GK rats are used instead of normal mice.

EC50 (adipose cells of rats) | A: sugar transportation activity (EC50) (adipose cells of rats) | Structure (SMILES) | hypoglycemic action (blood glucose level) (KK-Ay mice) | hypoglycemic action (blood glucose level) (C57BL/KsJ-db/bdJcl mice [1]) | hypoglycemic action (oral glucose load) (C57BL/KsJ-db/bdJcl mice [2]) | hypoglycemic action (area under the curve of blood glucose level changes until 70 minutes, variation from vehicle group) (C57BL/6NCrj mice) | hypoglycemic action (blood glucose level 60 minutes after administration) (C57BL/KsJ-db/bdJcl mice [3]) | hypoglycemic action (blood glucose level) (GK rats)
5.4 µg/mL (≈ 13.6 µM) | – | CCOCC(=O)N1[C@@H]2CCCC[C@H]2NC2=C(C(=O)NC2)[C@H]1c1ccccc1CC [Compound 96] | remarkable hypoglycemic action | remarkable hypoglycemic action | remarkable hypoglycemic action | remarkable hypoglycemic action | – | –
4 µg/mL (≈ 11.3 µM) | – | CCc1ccccc1[C@@H]1C2=C(CNC2=O)N[C@@H]2CCCC[C@H]2N1C(C)=O [Compound 98] | – | remarkable hypoglycemic action | remarkable hypoglycemic action | – | remarkable hypoglycemic action | remarkable hypoglycemic action
– | 1.5 µg/mL | CCC(=O)N1[C@@H]2CCCC[C@H]2NC2=C(C(=O)NC2)[C@H]1c1ccccc1 [Compound 130] | remarkable hypoglycemic action | remarkable hypoglycemic action | remarkable hypoglycemic action | – | – | remarkable hypoglycemic action

More lines, now with the values behind:

Structure (SMILES) | EC50 (adipose cells of rats) | A: sugar transportation activity (EC50) (adipose cells of rats) | hypoglycemic action (blood glucose level) (KK-Ay mice) | hypoglycemic action (blood glucose level) (C57BL/KsJ-db/bdJcl mice [1]) | hypoglycemic action (oral glucose load) (C57BL/KsJ-db/bdJcl mice [2]) | hypoglycemic action (area under the curve of blood glucose level changes until 70 minutes, variation from vehicle group) (C57BL/6NCrj mice) | hypoglycemic action (blood glucose level 60 minutes after administration) (C57BL/KsJ-db/bdJcl mice [3]) | hypoglycemic action (blood glucose level) (GK rats)
O=C1NCC2=C1[C@@H](c1ccccc1)N(C(=O)CO)[C@@H]1CCCC[C@H]1N2 [Compound 131] | – | 1.5 µg/mL | remarkable hypoglycemic action | remarkable hypoglycemic action | remarkable hypoglycemic action | – | – | remarkable hypoglycemic action
CCOCC(=O)N1[C@@H]2CCCC[C@H]2NC2=C(C(=O)NC2)[C@H]1c1ccccc1 [Compound 132] | – | 2.7 µg/mL | remarkable hypoglycemic action | remarkable hypoglycemic action | remarkable hypoglycemic action | – | – | remarkable hypoglycemic action
